Literature values, collected in article PMC8356818 (Chemical Science, 2021).
One block for each molecule: values may come before it.

How the values were obtained:
[1] = H4qp2 ligand, 25 °C
[2] = direct stopped-flow measurements
[3] = not given; remark: listed apart in the source

pKL1 ([1]; KL1 = [(H5qp2)^+][H^+]/[(H6qp2)^2+]): 4.47 (±0.08)
pKL2 ([1]; KL2 = [(H4qp2)][H^+]/[(H5qp2)^+]): 7.18 (±0.03)
Molecule: Oc1ccc(O)c(CN(CCN(Cc2ccccn2)Cc2cc(O)ccc2O)Cc2ccccn2)c1 [Complex H4qp2, N,N′-bis(2,5-dihydroxybenzyl)-N,N′-bis(2-pyridinylmethyl)-1,2-ethanediamine]

pMn (stability in water): 4.7
Molecule: C[C@@H]1N[C@@H]2CCCC[C@H]2NCCN[C@@H]2CCCC[C@H]2N[C@@H](C)c2cccc1n2.[Cl-].[Cl-].[Mn+2] [Complex M40401]
catalytic rate [2]: approximately 1.5 × 10^9 M^−1 s^−1

Mn estimated to be lost (release of free manganese) (neutral pH): approximately 30%
Molecule: Mn^IIBr8TM-4-PyP^4+
estimated log kcat if the catalyst were fully intact [3]: exceed 8.67
log kcat ([3]; determined by the cytochrome c assay): 8.34
